Laboratory results reported in patent US8058475B2, “Substituted cyclohexylmethyl compounds” (Gruenenthal GmbH, priority 2005, dated 2011).

Target: human μ-opiate receptor (Homo sapiens, UniProt P35372)
Test: Affinity for the human μ-opiate receptor ([3H]-naloxone displacement, SPA, CHO-K1 membrane preparation)
Format: binding
Details: for Ki: read-out: μ-Opioid receptor, Ki; for inhibition at 1 µM: read-out: μ-Opioid receptor, % inhibition [1 μM]

human μ-opiate receptor, sequence (P35372 whole entry): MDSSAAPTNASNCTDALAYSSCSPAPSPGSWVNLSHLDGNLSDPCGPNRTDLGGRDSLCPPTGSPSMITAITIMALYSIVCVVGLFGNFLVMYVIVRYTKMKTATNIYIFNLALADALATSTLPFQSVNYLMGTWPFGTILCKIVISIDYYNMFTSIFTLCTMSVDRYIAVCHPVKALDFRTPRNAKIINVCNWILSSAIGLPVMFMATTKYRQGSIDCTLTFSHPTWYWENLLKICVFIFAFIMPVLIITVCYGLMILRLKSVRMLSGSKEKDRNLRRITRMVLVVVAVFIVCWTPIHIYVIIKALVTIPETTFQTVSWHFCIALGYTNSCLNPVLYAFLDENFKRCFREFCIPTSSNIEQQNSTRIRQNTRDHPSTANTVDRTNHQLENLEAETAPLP

Compound	μ-Opioid receptor, % inhibition [1 μM]	Ki	inhibition at 1 µM
CN(C)C(c1ccccc1)C1CCC(CNC(=O)c2cccnc2Oc2ccc(Cl)cc2)CC1 (single isomer, unassigned) [compound 383, 2-(4-chloro-phenoxy)-N-[4-(dimethylamino-phenyl-methyl)-cyclohexylmethyl]-nicotinamide]	83%	86 nM	
CN(C)C(c1ccccc1)C1CCC(CCNC(=O)c2c(F)cccc2F)CC1 (stereo not shown) [compound 461, N-{2-[4-(dimethylamino-phenyl-methyl)-cyclohexyl]-ethyl}-2,6-difluoro-benzamide]		17 nM	100%
CCSc1ncccc1C(=O)NC1CCC(C(c2cccs2)N(C)C)CC1 (stereo not shown) [compound 213, N-[4-(dimethylamino-thiophen-2-yl-methyl)-cyclohexyl]-2-ethylsulfanyl-nicotinamide]		96 nM	91%
CN(C)C(c1cccc(F)c1)C1CCC(NC(=O)c2csc(-c3ccccc3)n2)CC1 (stereo not shown) [compound 264, 2-phenyl-thiazole-4-carboxylic acid {4-[dimethylamino-(3-fluoro-phenyl)-methyl]-cyclohexyl}-amide]		110 nM	78%
COc1ccccc1C(=O)NC1CCC(C(c2cccs2)N(C)C)CC1 (stereo not shown) [compound 207, N-[4-(dimethylamino-thiophen-2-yl-methyl)-cyclohexyl]-2-methoxy-benzamide]		28 nM	92%
CN(C)C(c1ccccc1)C1CCC(CNC(=O)Cc2ccc(Cl)cc2)CC1 (stereo not shown) [compound 324, 2-(4-chloro-phenyl)-N-[4-(dimethylamino-phenyl-methyl)-cyclohexylmethyl]-acetamide]		22 nM	95%
CC(Oc1ccccc1)C(=O)NC1CCC(C(c2cccc(F)c2)N(C)C)CC1 (single isomer, unassigned) [compound 215, N-{4-[dimethylamino-(3-fluoro-phenyl)-methyl]-cyclohexyl}-2-phenoxy-propionamide]		34 nM	90%
COc1cccc(CC(=O)NCC2CCC(C(c3ccc(Cl)cc3)N(C)C)CC2)c1 (stereo not shown) [compound 320, N-{4-[(4-chloro-phenyl)-dimethylamino-methyl]-cyclohexylmethyl}-2-(3-methoxy-phenyl)-acetamide]		28 nM	95%
COc1ccc(C(=O)NC2CCC(C(c3ccccc3)N(C)C)CC2)c(OC)c1 (stereo not shown) [compound 216, N-[4-(dimethylamino-phenyl-methyl)-cyclohexyl]-2,4-dimethoxy-benzamide]		56 nM	90%
CN(C)C(c1cccc(F)c1)C1CCC(NC(=O)c2ccc(-c3ccccn3)s2)CC1 (stereo not shown) [compound 267, 5-pyridin-2-yl-thiophene-2-carboxylic acid {4-[dimethylamino-(3-fluoro-phenyl)-methyl]-cyclohexyl}-amide]		150 nM	77%
CN(C)C(c1cccs1)C1CCC(CCNC(=O)c2csc3ccccc23)CC1 (stereo not shown) [compound 465, benzo[b]thiophene-3-carboxylic acid {2-[4-(dimethylamino-thiophen-2-yl-methyl)-cyclohexyl]-ethyl}-amide]		3.1 nM	99%
CN(C)C(c1cccc(F)c1)C1CCC(CCNC(=O)c2ccccc2F)CC1 (stereo not shown) [compound 411, N-(2-{4-[dimethylamino-(3-fluoro-phenyl)-methyl]-cyclohexyl}-ethyl)-2-fluoro-benzamide]		11 nM	99%
CN(C)C(c1cccs1)C1CCC(CNC(=O)CC(C)(C)C)CC1 (stereo not shown) [compound 301, N-[4-(dimethylamino-thiophen-2-yl-methyl)-cyclohexylmethyl]-3,3-dimethyl-butyramide]		2.7 nM	99%
CCn1nc(C)c(Br)c1C(=O)NC1CCC(C(c2ccccc2)N(C)C)CC1 (stereo not shown) [compound 268, 4-bromo-2-ethyl-5-methyl-2H-pyrazole-3-carboxylic acid [4-(dimethylamino-phenyl-methyl)-cyclohexyl]-amide]		86 nM	76%
CN(C)C(c1cccc(F)c1)C1CCC(CNC(=O)CC(C)(C)C)CC1 (stereo not shown) [compound 295, N-{4-[dimethylamino-(3-fluoro-phenyl)-methyl]-cyclohexylmethyl}-3,3-dimethyl-butyramide]		7.3 nM	101%
CN(C)C(c1cccc(F)c1)C1CCC(CNC(=O)Cc2ccccc2)CC1 (single isomer, unassigned) [compound 348, N-{4-[dimethylamino-(3-fluoro-phenyl)-methyl]-cyclohexylmethyl}-2-phenyl-acetamide]	89%	30 nM	
CN(C)C(c1ccccc1)C1CCC(NC(=O)COCc2ccccc2)CC1 (stereo not shown) [compound 254, 2-benzyloxy-N-[4-(dimethylamino-phenyl-methyl)-cyclohexyl]-acetamide]		56 nM	80%
CN(C)C(c1cccs1)C1CCC(NC(=O)c2cc(Cl)cc(Cl)c2)CC1 (stereo not shown) [compound 194, 3,5-dichloro-N-[4-(dimethylamino-thiophen-2-yl-methyl)-cyclohexyl]-benzamide]		5.3 nM	96%
CN(C)C(c1ccccc1)C1CCC(CCNC(=O)c2ccc3snnc3c2)CC1 (stereo not shown) [compound 472, benzo[1,2,3]thiadiazole-5-carboxylic acid {2-[4-(dimethylamino-phenyl-methyl)-cyclohexyl]-ethyl}-amide]			85%
Cc1cc(C(=O)NC2CCC(C(c3ccccc3)N(C)C)CC2)n(C(C)(C)C)n1 (stereo not shown) [compound 247, 2-tert-butyl-5-methyl-2H-pyrazole-3-carboxylic acid [4-(dimethylamino-phenyl-methyl)-cyclohexyl]-amide]	82%	36 nM	
CN(C)C(c1ccccc1)C1CCC(CCNC(=O)C(c2ccccc2)c2ccccc2)CC1 (stereo not shown) [compound 448, N-{2-[4-(dimethylamino-phenyl-methyl)-cyclohexyl]-ethyl}-2,2-diphenyl-acetamide]		33 nM	95%
CSc1ncccc1C(=O)NCCC1CCC(C(c2ccccc2)N(C)C)CC1 (stereo not shown) [compound 466, N-{2-[4-(dimethylamino-phenyl-methyl)-cyclohexyl]-ethyl}-2-methylsulfanyl-nicotinamide]		41 nM	86%
COc1c(C(=O)NCC2CCC(C(c3ccc(F)cc3)N(C)C)CC2)csc1Cl (stereo not shown) [compound 376, 5-chloro-4-methoxy-thiophene-3-carboxylic acid {4-[dimethylamino-(4-fluoro-phenyl)-methyl]-cyclohexylmethyl}-amide]		40 nM	84%
CN(C)C(c1cccs1)C1CCC(NC(=O)c2cccnc2Oc2ccc(Cl)cc2)CC1 (stereo not shown) [compound 257, 2-(4-chloro-phenoxy)-N-[4-(dimethylamino-thiophen-2-yl-methyl)-cyclohexyl]-nicotinamide]		81 nM	79%
CN(C)C(c1ccc(Cl)cc1)C1CCC(CNC(=O)C(c2ccccc2)c2ccccc2)CC1 (stereo not shown) [compound 312, N-{4-[(4-chloro-phenyl)-dimethylamino-methyl]-cyclohexylmethyl}-2,2-diphenyl-acetamide]		53 nM	97%
